Values after ≈ are worked out from the molar mass of the structure shown. Values joined by “and” are separate entries in the source; they are usually repeats but may differ in a detail not shown here. Equal entries are not always repeated.
Experiments:
Test in all cases: ≥ marks a high value that may be exact or a test limit, other limits are often not marked, values filed in µg/mL are converted to µM
[1] = system: Candida albicans MDM8
[2] = system: Escherichia coli SBS 363
[3] = system: Micrococcus luteus A270
[4] = system: Pseudomonas aeruginosa ATCC 27853
[5] = system: Salmonella enterica subsp. arizonae ATCC 13314
[6] = system: Escherichia coli ATCC 25922
[7] = system: Escherichia coli CCARM 1229
[8] = system: Listeria monocytogenes KCTC 3710
[9] = system: Pseudomonas aeruginosa 3592
[10] = system: Pseudomonas aeruginosa 5018
[11] = system: Salmonella typhimurium CCARM 8009
[12] = system: Salmonella typhimurium CCARM 8013
[13] = system: Salmonella typhimurium KCTC 1926
[14] = system: Staphylococcus aureus ATCC 25923
[15] = system: Staphylococcus aureus CCARM 3114
[16] = system: Staphylococcus aureus CCARM 3709
[17] = system: Acinetobacter baumannii ATCC 15308
[18] = system: Citrobacter sp.
[19] = system: Enterobacter cloacae
[20] = system: Klebsiella pneumoniae
[21] = system: Pseudomonas aeruginosa ATCC 15442
[22] = system: Staphylococcus aureus
[23] = system: Streptococcus pneumoniae
[24] = system: Bacillus subtilis KCTC 3068
[25] = system: Enterococcus faecalis VR
[26] = system: Enterococcus faecalis
[27] = system: Enterococcus faecium VR
[28] = system: Enterococcus faecium
[29] = system: Escherichia coli KCTC 1682
[30] = system: Pseudomonas aeruginosa KCTC 1637
[31] = system: Staphylococcus aureus KCTC 1621
[32] = system: Staphylococcus aureus MR
[33] = system: Staphylococcus epidermidis KCTC 1917
[34] = system: Acinetobacter baumannii ATCC 17978
[35] = system: Acinetobacter baumannii AYE
[36] = system: Enterococcus faecalis NCTC 12201
[37] = system: Enterococcus faecalis NCTC 775
[38] = system: Klebsiella pneumoniae M6
[39] = system: Pseudomonas aeruginosa NCTC 13437
[40] = system: Pseudomonas aeruginosa PAO1
[41] = system: Staphylococcus aureus NCTC 13277
[42] = system: Staphylococcus aureus NCTC 13616
[43] = system: Staphylococcus aureus NCTC 6571
[44] = system: Acinetobacter baumannii ATCC 19606
[45] = system: Acinetobacter baumannii ATCC BAA-1605
[46] = system: Acinetobacter baumannii ATCC BAA-747
[47] = system: Acinetobacter baumannii NR-13375
[48] = system: Acinetobacter baumannii NR-9667
[49] = system: Pseudomonas aeruginosa 1109
[50] = system: Pseudomonas aeruginosa 1125
[51] = system: Pseudomonas aeruginosa ATCC 10145
[52] = system: Pseudomonas aeruginosa ATCC 25619
[53] = system: Pseudomonas aeruginosa ATCC 35032
[54] = system: Pseudomonas aeruginosa ATCC 9027
[55] = system: Pseudomonas aeruginosa ATCC 9721
[56] = system: Pseudomonas aeruginosa ATCC BAA-1744

Question: How did the MIC [1] turn out when `CC[C@H](C)[C@H](NC(=O)[C@H](CC(C)C)NC(=O)[C@H](CO)NC(=O)[C@H](CC(C)C)NC(=O)[C@H](CC(C)C)NC(=O)[C@@H](N)CO)C(=O)N[C@@H](CCCN=C(N)N)C(=O)N[C@@H](CC(C)C)C(=O)N[C@@H](CC(C)C)C(=O)N[C@H](C(=O)N[C@H](C(N)=O)[C@@H](C)O)[C@@H](C)CC` [SLLSLIRLLIT] was run?
Answer: 12.5 µM (≈ 15.5 µg/mL)

Question: What about the MIC [2] of the same compound?
Answer: 12.5 µM (≈ 15.5 µg/mL)

Question: What about the MIC [3] of the same compound?
Answer: 12.5 µM (≈ 15.5 µg/mL)

Question: And the MIC [4]?
Answer: 1.6 µM (≈ 1.98 µg/mL)

Question: What about the MIC [5] of the same compound?
Answer: ≥ 50 µM

Question: With `CC[C@H](C)[C@H](NC(=O)[C@H](Cc1c[nH]c2ccccc12)NC(=O)[C@H](CCCN=C(N)N)NC(=O)[C@@H](NC(=O)[C@@H](N)CCCN=C(N)N)[C@@H](C)CC)C(=O)N[C@@H](CC(C)C)C(=O)N[C@@H](CCCN=C(N)N)C(=O)N[C@@H](Cc1ccc(O)cc1)C(=O)N[C@@H](Cc1c[nH]c2ccccc12)C(=O)N[C@@H](CCCN=C(N)N)C(=O)N[C@@H](Cc1c[nH]c2ccccc12)C(=O)N[C@@H](CO)C(=O)O` [RIRWILRYWRWS] as the compound, how does the MIC [6] read?
Answer: 2 µM (≈ 3.58 µg/mL)

Question: And the MIC [7]?
Answer: 1 µM and 2 µM

Question: What about the MIC [8] of the same compound?
Answer: 4 µM (≈ 7.16 µg/mL)

Question: And the MIC [9]?
Answer: 8 µM (≈ 14.3 µg/mL)

Question: And the MIC [10]?
Answer: 8 µM (≈ 14.3 µg/mL)

Question: What about the MIC [4] of the same compound?
Answer: 4 µM (≈ 7.16 µg/mL)

Question: What about the MIC [11] of the same compound?
Answer: 4 µM (≈ 7.16 µg/mL)

Question: And the MIC [12]?
Answer: 4 µM and 8 µM

Question: And the MIC [13]?
Answer: 2 µM (≈ 3.58 µg/mL)

Question: And the MIC [14]?
Answer: 1 µM (≈ 1.79 µg/mL)

Question: What about the MIC [15] of the same compound?
Answer: 8 µM and 16 µM

Question: What about the MIC [16] of the same compound?
Answer: 2 µM and 4 µM

Question: What does the source list for `CC[C@H](C)[C@H](NC(=O)[C@H](CCSC)NC(=O)[C@H](C)NC(=O)[C@@H]1CCCN1C(=O)[C@@H](NC(=O)[C@@H](NC(=O)[C@H](CCCCN)NC(=O)[C@@H](NC(=O)[C@H](CC(C)C)NC(=O)CNC(=O)CNC(=O)[C@H](CC(C)C)NC(=O)[C@@H](N)Cc1ccccc1)[C@@H](C)CC)[C@@H](C)CC)C(C)C)C(=O)N[C@H]1CSSC[C@@H](C(=O)O)NC(=O)[C@H](CCCCN)NC(=O)[C@H](CCCCN)NC(=O)[C@H](CCCN=C(N)N)NC(=O)[C@H](C(C)C)NC(=O)[C@H](C)NC1=O` [FLGGLIKIVPAMICAVRKKC]?
Answer: MIC [17]: ≥ 116 µM; MIC [18]: ≥ 116 µM; MIC [19]: ≥ 116 µM; MIC [6]: 116 µM (≈ 250 µg/mL); MIC [20]: > 116 µM; MIC [21]: ≥ 116 µM; MIC [14]: 57.8 µM (≈ 125 µg/mL); MIC [22]: 116 µM (≈ 250 µg/mL); MIC [23]: ≥ 116 µM

Question: For `CC[C@H](C)[C@H](NC(=O)[C@H](CS)NC(=O)[C@H](Cc1cnc[nH]1)NC(=O)[C@H](C)NC(=O)[C@H](C)N)C(=O)N[C@H](C(=O)N[C@@H](CC(C)C)C(=O)N[C@@H](Cc1cnc[nH]1)C(=O)N[C@@H](Cc1cnc[nH]1)C(=O)N[C@@H](CC(N)=O)C(N)=O)C(C)C` [AAHCIVLHHN], which MIC [24] is on record?
Answer: 15 µM (≈ 16.7 µg/mL)

Question: What about the MIC [25] of the same compound?
Answer: 30 µM (≈ 33.4 µg/mL)

Question: What about the MIC [26] of the same compound?
Answer: 30 µM (≈ 33.4 µg/mL)

Question: And the MIC [27]?
Answer: 30 µM (≈ 33.4 µg/mL)

Question: And the MIC [28]?
Answer: 30 µM (≈ 33.4 µg/mL)

Question: And the MIC [29]?
Answer: 30 µM (≈ 33.4 µg/mL)

Question: What about the MIC [30] of the same compound?
Answer: 15 µM (≈ 16.7 µg/mL)

Question: And the MIC [13]?
Answer: 30 µM (≈ 33.4 µg/mL)

Question: What about the MIC [31] of the same compound?
Answer: 30 µM (≈ 33.4 µg/mL)

Question: What about the MIC [32] of the same compound?
Answer: 30 µM (≈ 33.4 µg/mL)

Question: What about the MIC [33] of the same compound?
Answer: 15 µM (≈ 16.7 µg/mL)

Question: With `CC[C@H](C)[C@H](NC(=O)[C@@H]1CCCN1C(=O)[C@H](CC(C)C)NC(=O)[C@@H](N)Cc1ccccc1)C(=O)N[C@H](C(=O)NCC(=O)N[C@@H](CC(C)C)C(=O)N[C@@H](CC(C)C)C(=O)N[C@@H](CCCCN)C(=O)N[C@@H](CO)C(=O)N[C@@H](CC(C)C)C(=O)N[C@@H](CC(C)C)C(=O)N[C@@H](CCCCN)C(N)=O)C(C)C` [FLPIVGLLKSLLK] as the compound, how does the MIC [34] read?
Answer: 5.55 µM and 11.1 µM

Question: And the MIC [35]?
Answer: 5.55 µM (≈ 7.99 µg/mL)

Question: What about the MIC [36] of the same compound?
Answer: ≥ 88.8 µM

Question: What about the MIC [37] of the same compound?
Answer: 22.2 µM and ≥ 44.4 µM

Question: What about the MIC [38] of the same compound?
Answer: 22.2 µM and ≥ 44.4 µM

Question: What about the MIC [39] of the same compound?
Answer: ≥ 88.8 µM

Question: What about the MIC [40] of the same compound?
Answer: 88.8 µM (≈ 128 µg/mL)

Question: What about the MIC [41] of the same compound?
Answer: 11.1 µM (≈ 16 µg/mL)

Question: What about the MIC [42] of the same compound?
Answer: 11.1 µM (≈ 16 µg/mL)

Question: What about the MIC [43] of the same compound?
Answer: 2.78 µM and 5.55 µM

Question: `CC[C@H](C)[C@H](NC(=O)[C@H](Cc1c[nH]c2ccccc12)NC(=O)[C@H](CCCCN)NC(=O)[C@H](CCCCN)NC(=O)[C@@H](NC(=O)[C@H](CCCN=C(N)N)NC(=O)[C@H](CCCN=C(N)N)NC(=O)[C@@H](NC(=O)[C@@H](N)Cc1c[nH]c2ccccc12)[C@@H](C)CC)[C@@H](C)CC)C(=O)N[C@@H](CCCN=C(N)N)C(=O)N[C@@H](CCCN=C(N)N)C(=O)N[C@H](C(=O)N[C@@H](Cc1cnc[nH]1)C(=O)N[C@@H](CCCCN)C(=O)O)C(C)C` [WIRRIKKWIRRVHK] was tested. Which MIC [44] did it give?
Answer: 2 µM (≈ 3.95 µg/mL)

Question: What about the MIC [45] of the same compound?
Answer: 4 µM (≈ 7.9 µg/mL)

Question: What about the MIC [46] of the same compound?
Answer: 4 µM (≈ 7.9 µg/mL)

Question: What about the MIC [47] of the same compound?
Answer: 2 µM (≈ 3.95 µg/mL)

Question: What about the MIC [48] of the same compound?
Answer: 4 µM (≈ 7.9 µg/mL)

Question: And the MIC [49]?
Answer: 16 µM (≈ 31.6 µg/mL)

Question: And the MIC [50]?
Answer: ≥ 32 µM

Question: What about the MIC [51] of the same compound?
Answer: 8 µM (≈ 15.8 µg/mL)

Question: And the MIC [21]?
Answer: 16 µM (≈ 31.6 µg/mL)

Question: What about the MIC [52] of the same compound?
Answer: 8 µM (≈ 15.8 µg/mL)

Question: And the MIC [4]?
Answer: 8 µM (≈ 15.8 µg/mL)

Question: And the MIC [53]?
Answer: 16 µM (≈ 31.6 µg/mL)

Question: What about the MIC [54] of the same compound?
Answer: 4 µM (≈ 7.9 µg/mL)

Question: What about the MIC [55] of the same compound?
Answer: 8 µM (≈ 15.8 µg/mL)

Question: What about the MIC [56] of the same compound?
Answer: 16 µM (≈ 31.6 µg/mL)
